From patent publication US20150299125A1, “PRODRUG BIPYRIDYLAMINOPYRIDINES AS SYK INHIBITORS” (MERCK SHARP & DOHME CORP., priority 2012, published 2015)
In brackets after ≈: the same amount, converted by molar mass.

How the values were obtained:
[1] = molecular target: T1, recombinant human GST-Syk (Homo sapiens, UniProt P43405); test: Homogeneous Time-Resolved Fluorescence (HTRF) assay for the recombinant human Syk enzyme; format: biochemical; settings: recombinant human GST-Syk 5 pM, ATP 25 μM, read-out: IC50
T1 construct: purchased Carna Biosciences 08-176
Procedure, shortened: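 HTRF read-out, taken 30 min after adding 2 nM europium anti-pTyr antibody plus 70 nM streptavidin-APC in 40 mM EDTA/Tris pH 7.5, detects peptide phosphorylated by GST-tagged human Syk during a 45-min room-temperature reaction.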

[2] = Conversion of prodrug to parent in in vitro biorelevant gastrointestinal tract media; format: in vitro ADME; settings: 37° C.; for Conversion in SGF, time: simulated gastric fluid
Experimental: Conversion of Prodrug to Parent in In Vitro Biorelevant Gastrointestinal Tract Media: The likely stability of prodrugs in the gastrointestinal tract can be estimated by incubating a prodrug in simulated gastric and intestinal fluids; compounds were measured for stability in simulated gastric fluid (SGF), fasted state simulated intestinal fluid (FaSSIF), and fasted state simulated intestinal fluid plus pancreatin (FaSSIF+pancreatin). Prodrug stock solutions were made by diluting 2 mg of compound in 200 μL DMSO. A 10 mg/mL Pancreatin in FaSSIF stock solution was made by dissolving 10 mg Pancreatin in 1 mL FaSSIF. Samples were prepared by diluting 10 μL of compound stock solution into 990 μL of biorelevant media (990 μL SGF, 990 μL FaSSIF, or 940 μL FaSSIF plus 50 μL Pancreatin stock) in a 2 mL HPLC vial and vortexing the mixture for a few seconds. The samples were incubated at 37° C. and aliquots were removed for up to 24 hours and injected directly on an HPLC to determine the conversion of prodrug to active drug. In the case of compound precipitation upon sample preparation, an individual sample was prepared for each desired time point and the entire sample was diluted with a known volume of acetonitrile/water (50/50) to ensure compound dissolution before HPLC analysis.

[3] = Solubility in biorelevant fasted state simulated intestinal fluid (FaSSIF); format: physicochemical; settings: 25 °C, fassif, kinetic from dmso stock, Solubility
Procedure, shortened: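 Compound from 10 mM DMSO stock diluted into FaSSIF (maximum solubility approximately 200 μM), equilibrated, then filtered by centrifugation through a 0.45 μm polypropylene membrane. Filtrate and a 100 μM standard analysed by HPLC/DAD; solubility = (sample peak area/standard peak area) × standard concentration.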

| Compound | IC50 [1] | Conversion in FaSSIF + Pancreatin, time ([2]; 3 h) | Conversion in FaSSIF, time ([2]; 24 h) | Conversion in SGF, time ([2]; 5 h) | Conversion in FaSSIF, time ([2]; 5 h) | Conversion in SGF, time ([2]; 3 h) | solubility [3] | Conversion in FaSSIF + Pancreatin, time ([2]; 5 h) | Conversion in FaSSIF, time ([2]; 3 h) | Conversion in FaSSIF + Pancreatin, time ([2]; 24 h) |
| --- | --- | --- | --- | --- | --- | --- | --- | --- | --- | --- |
| Cc1cc(Nc2cc(C(F)F)ccn2)nc(-c2ccc([C@](C)(O)[C@H]3CC[C@H](C(=O)OCOC(=O)OCCOCCOCCOCCO)CC3)nc2)c1 [Example 2-4, 15-hydroxy-3-oxo-2,4,7,10,13-pentaoxapentadec-1-yl trans-4-[(1R)-1-(6-{[4-(difluoromethyl)pyridin-2-yl]amino}-4-methyl-2,3′-bipyridin-6′-yl)-1-hydroxyethyl]cyclo hexanecarboxylate] | 5.3 nM | 100%, 3 h | 5%, 24 h | 0%, 5 h | – | – | – | – | – | – |
| Cc1cc(Nc2cc(C(F)F)ccn2)nc(-c2ccc([C@](C)(O)[C@H]3CC[C@H](C(=O)OCOC(=O)OCC4CCOCC4)CC3)nc2)c1 [Example 2-9, {[(tetrahydro-2H-pyran-4-ylmethoxy)carbonyl]oxy}methyl trans-4-[(1R)-1-(6-{[4-(difluoromethyl)pyridin-2-yl]amino}-4-methyl-2,3′-bipyridin-6′-yl)-1-hydroxyethyl]cyclo hexanecarboxylate] | 27.2 nM | 65%, 3 h | – | – | 0%, 5 h | 2%, 3 h | – | – | – | – |
| Cc1cc(Nc2cc(C(F)F)ccn2)nc(-c2ccc([C@](C)(O)[C@H]3CC[C@H](C(=O)OCOC(=O)OCCCCCCN(C)C)CC3)nc2)c1 [Example 2-7, [({[6-(dimethylamino)hexyl]oxy}carbonyl)oxy]methyl trans-4-[(1R)-1-(6-{[4-(difluoromethyl)pyridin-2-yl]amino}-4-methyl-2,3′-bipyridin-6′-yl)-1-hydroxyethyl]cyclo hexanecarboxylate] | 78 nM | 20%, 3 h | – | 0%, 5 h | 0%, 5 h | – | 119 µM (≈ 81.4 µg/mL) | – | – | – |
| CNCCCOC(=O)[C@H]1CC[C@H]([C@@](C)(O)c2ccc(-c3cc(C)cc(Nc4cc(C(F)F)ccn4)n3)cn2)CC1 [Example 1-22, 3-(methylamino)propyl trans-4-[(1R)-1-(6-{[4-(difluoromethyl)pyridin-2-yl]amino}-4-methyl-2,3′-bipyridin-6′-yl)-1-hydroxyethyl] cyclohexanecarboxylate] | 1.8 nM | 100%, 3 h | – | 0%, 5 h | 0%, 5 h | – | 183 µM (≈ 101 µg/mL) | – | – | – |
| Cc1cc(Nc2cc(C(F)F)ccn2)nc(-c2ccc([C@](C)(O)[C@H]3CC[C@H](C(=O)OCOP(=O)(O)O)CC3)nc2)c1 [Example 10-1, (Phosphonooxy)methyl trans-4-[(1R)-1-(6-{[4-(difluoromethyl)pyridin-2-yl]amino}-4-methyl-2,3′-bipyridin-6′-yl)-1-hydroxyethyl]cyclohexanecarboxylate] | < 0.5 nM | – | – | 5%, 5 h | 20%, 5 h | – | – | 50%, 5 h | – | – |
| CCOCCOC(=O)OCOC(=O)[C@H]1CC[C@H]([C@@](C)(O)c2ccc(-c3cc(C)cc(Nc4cc(C(F)F)ccn4)n3)cn2)CC1 [Example 2-6, {[(2-ethoxyethoxy)carbonyl]oxy}methyl trans-4-[(1R)-1-(6-{[4-(difluoromethyl)pyridin-2-yl]amino}-4-methyl-2,3′-bipyridin-6′-yl)-1-hydroxyethyl]cyclo hexanecarboxylate] | < 0.5 nM | 95%, 3 h | – | 0%, 5 h | 0%, 5 h | – | – | – | – | – |
| Cc1cc(Nc2cc(C(F)F)ccn2)nc(-c2ccc([C@](C)(O)[C@H]3CC[C@H](C(=O)OCC4CCNCC4)CC3)nc2)c1 [Example 1-21, piperidin-4-ylmethyl trans-4-[(1R)-1-(6-{[4-(difluoromethyl)pyridin-2-yl]amino}-4-methyl-2,3′-bipyridin-6′-yl)-1-hydroxyethyl] cyclohexanecarboxylate] | 2.3 nM | 100%, 3 h | – | 0%, 5 h | 0%, 5 h | – | 167 µM (≈ 96.8 µg/mL) | – | – | – |
| Cc1cc(Nc2cc(C(F)F)ccn2)nc(-c2ccc([C@](C)(O)[C@H]3CC[C@H](C(=O)OCOC(=O)C4CCNCC4)CC3)nc2)c1 [Example 3-1] | 27 nM | 100%, 3 h | – | 0%, 5 h | – | – | 147 µM (≈ 91.7 µg/mL) | – | 100%, 3 h | – |
| Cc1cc(Nc2cc(C(F)F)ccn2)nc(-c2ccc([C@](C)(O)[C@H]3CC[C@H](C(=O)O[C@H]4CC[C@H](N)CC4)CC3)nc2)c1 [Example 1-23, trans-4-aminocyclohexyl trans-4-[(1R)-1-(6-{[4-(difluoromethyl)pyridin-2-yl]amino}-4-methyl-2,3′-bipyridin-6′-yl)-1-hydroxyethyl] cyclohexanecarboxylate] | 1.6 nM | 100%, 3 h | – | 0%, 5 h | 0%, 5 h | – | 131 µM (≈ 75.9 µg/mL) | – | – | – |
| Cc1cc(Nc2cc(C(F)F)ccn2)nc(-c2ccc([C@](C)(O)[C@H]3CC[C@H](C(=O)Oc4ccc(C#N)cc4)CC3)nc2)c1 [Example 1-29, 4-cyanophenyl trans-4-[(1R)-1-(6-{[4-(difluoromethyl)pyridin-2-yl]amino}-4-methyl-2,3′-bipyridin-6′-yl)-1-hydroxyethyl] cyclohexanecarboxylate] | 7.3 nM | – | – | 0%, 5 h | 0%, 5 h | – | – | – | – | 44%, 24 h |
| Cc1cc(Nc2cc(C(F)F)ccn2)nc(-c2ccc([C@](C)(O)[C@H]3CC[C@H](C(=O)OC[N+](C)(C)CCOC(=O)c4ccccc4)CC3)nc2)c1 [Example 5-25, N-{[({trans-4-[(1R)-1-(6-{[4-(difluoromethyl)pyridin-2-yl]amino}-4-methyl-2,3′-bipyridin-6′-yl)-1-hydroxyethyl]cyclohexyl}carbonyl)oxy]methyl}-N,N-dimethyl-2-[(phenylcarbonyl)oxy]ethanaminium] | 0.7 nM | – | – | – | – | – | 155 µM | – | – | – |
| Cc1cc(Nc2cc(C(F)F)ccn2)nc(-c2ccc([C@](C)(O)[C@H]3CC[C@H](C(=O)OCCC(=O)N(C)C)CC3)nc2)c1 [Example 1-27, 3-(dimethylamino)-3-oxopropyl trans-4-[(1R)-1-(6-{[4-(difluoromethyl)pyridin-2-yl]amino}-4-methyl-2,3′-bipyridin-6′-yl)-1-hydroxyethyl] cyclohexanecarboxylate] | 1.8 nM | – | – | – | – | – | 50 µM (≈ 29.1 µg/mL) | – | – | – |
| CO[C@H]1O[C@H](COC(=O)[C@H]2CC[C@H]([C@@](C)(O)c3ccc(-c4cc(C)cc(Nc5cc(C(F)F)ccn5)n4)cn3)CC2)[C@@H](O)[C@H](O)[C@H]1O [Example 1-26, methyl 6-O-({trans-4-[(1R)-1-(6-{[4-(difluoromethyl)pyridin-2-yl]amino}-4-methyl-2,3′-bipyridin-6′-yl)-1-hydroxyethyl]cyclohexyl}carbonyl)-alpha-D-glucopyranoside] | 4.1 nM | – | – | – | – | – | 109 µM (≈ 71.8 µg/mL) | – | – | – |
